According to patent US8323673B2, “Concentrated, non-foaming solution of quaternary ammonium compounds and methods of use” (University of Arkansas, priority 1996, dated 2012):

Tests used:
L. monocytogenes [1] = experiment: Inhibition of attachment of Listeria monocytogenes to chicken skin
From the text: The steps of Example 3 were followed except that L. monocytogenes was used to inoculate the chicken skin and the media in the plastic bag used in the Stomacher 400 contained 0.1% peptone.

S. typhimurium [2] = experiment: Spraying whole chicken carcasses with a commercial sprayer; design: species or system Salmonella typhimurium
Method: (§1) These experiments tested the effect that spraying QACs on whole chicken carcasses using a commercial sprayer would have on the reduction of viable bacteria. The bacterial inoculating solutions were made as follows: E. coli (ATTC #25922) was grown in brain heart infusion broth (BHI) for 20-24 h and then diluted to a 1:1000 concentration by adding 0.5 ml of E. coli culture to 500 ml of physiological saline solution (PSS). S. typhimurium was grown in BHI for 20-24 h and then diluted to a 1:5000 concentration by adding 0.1 ml of S. typhimurium culture to 500 ml of physiological saline solution (PSS). […] Prechill chicken carcasses were obtained from a local poultry processing plant for each trial. The carcasses were placed on a shackle line and 1 ml of the bacterial inoculating solution was sprayed on the breast of the carcass, and 1 ml was sprayed on the back. The bacteria were allowed to attach for 30 min at room temperature. After attachment the carcasses were rinsed on the shackle line with tap water for 20 seconds. The carcasses were divided into groups of ten. […] In the S. typhimurium tests, there was also a group that was not sprayed after inoculation to evaluate the effect of the spray.
(§2) For all of the bacteria, one group of carcasses were treated with the Johnson™ washer for 20 seconds at 60 psi with 35 cups of tap water. After the rinse, the carcasses were allowed to set for 90 seconds, and then rinsed with 20 cups of tap water for 20 seconds at 80 psi. This rinse cycle was repeated either two or three times. The interval of each rinse was also 90 seconds. […] This rinse cycle was repeated either two or three times.
(§3) After treatment the carcasses were placed in plastic bags and 100 ml of 0.1% buffered peptone water (BPW) was added to each bag. The bags were mechanically shaken and the rinse collected for most probable number (MPN) technique. Petrifilm™ was also employed for evaluation of total aerobic plate counts (TPC). Preexisting (not inoculated) C. jejuni was enumerated by the MPN technique and E. coli by Petrifilm™.

[3] = Ames assay for mutagenicity; format: cell-based
Method: The present invention has an important application in the food processing industry, as well as for home and institutional food preparation. QACs are readily available and the cost of carrying out the method of the present invention is not expensive as compared to existing antimicrobial processes. […] A range of concentrations of QACs are effective in preventing broad spectrum microbial growth on food products. QACs are tested by the Ames assay for mutagenicity.

Escherichia coli O157:H7 [4] = test system: Escherichia coli O157:H7
C. jejuni = experiment: Spraying whole chicken carcasses with a commercial sprayer; design: species or system Campylobacter jejuni; conditions: for BACTERIA PRESENT, 5,000 ppm CPC: preexisting C. jejuni, MPN, spray 20 seconds at 60 psi
Method: as §1, §2, §3

Salmonella = experiment: Another spraying experiment on chicken carcasses; conditions: 90 second spraying of chicken carcasses with 5,000 ppm CPC
Escherichia coli O157:H7 [5] = test system: Escherichia coli O157:H7; remark: listed apart in the source
Escherichia coli O157:H7 [6] = test system: Escherichia coli O157:H7; remark: listed apart in the source
E. coli = experiment: Spraying whole chicken carcasses with a commercial sprayer; design: species or system Escherichia coli; conditions: for BACTERIA PRESENT, 5,000 ppm CPC: Petrifilm, spray 20 seconds at 60 psi
Method: as §1, §2, §3

Arcobacter butzleri = experiment: MBC, macrodilution broth method; format: cell-based; conditions: microaerophilic, 37° C., 48 hours
Method: (§4) Experiments were conducted by microaerophilic incubation at 37° C. for 48 hours. An aliquot of each dilution was pour plated in agar and incubated in microaerophilic conditions at 37° C. for 48 hours. MBCs were determined as the lowest dilution with no growth.

Campylobacter jejuni = experiment: MBC, macrodilution broth method; format: cell-based; conditions: microaerophilic, 37° C., 48 hours
Method: as §4

L. monocytogenes [7] = experiment: Reduction of viable Listeria monocytogenes attached to chicken skin; conditions: CPC 2000 ppm or higher
From the text: The steps of Example 2 were followed except that L. monocytogenes was used to inoculate the chicken skin and the media in the plastic bag used in the Stomacher 400 contained 0.1% peptone.

S. typhimurium [8] = experiment: Concentration and time study: reduction of viable S. typhimurium on chicken skin; design: species or system Salmonella typhimurium; conditions: CPC 4000 and 8000 ppm in 5% glycerin-PBS, contact times as low as 3 min
Method: CPC in the glycerin-PBS mixture. […] Salmonella storage was on TSA. Inoculum preparation was performed as follows.
Culture plates with the skin pieces were incubated (30 min., 35° C.), and then the incubating solution was removed by aspiration. The inoculated skins were treated with 5 ml of the test solution. […] A corner of the bag was aseptically cut and the entire contents were transferred to a sterile centrifuge tube, which was then spun for 10 min (12,000 rpm, 20° C.). The pellet was resuspended in 5 ml 0.1% (w/v) peptone/water.

CCCCCCCCCCCCCCCC[n+]1ccccc1 [CPC, cetylpyridinium chloride]
reduction of attached bacteria (L. monocytogenes [1]; 50 ppm CPC): 82% | reduction of attached bacteria (L. monocytogenes [1]; 100 ppm CPC): 92% | reduction of attached bacteria (L. monocytogenes [1]; 500 and 1000 ppm CPC): 100% | Reduction, No Spray vs. CPC Treatment (S. typhimurium [2]; trial 1 (Dec. 02, 1996)): 1.047 Log10 CFUs | Reduction, Spray vs. CPC Treatment (S. typhimurium [2]; trial 1 (Dec. 02, 1996)): 0.744 Log10 CFUs | S. typhimurium, 5,000 ppm CPC (S. typhimurium [2]; trial 1 (Dec. 02, 1996)): 4.295 Log10 CFUs | Reduction, No Spray vs. CPC Treatment (S. typhimurium [2]; trial 2 (Dec. 09, 1996)): 3.327 Log10 CFUs | Reduction, Spray vs. CPC Treatment (S. typhimurium [2]; trial 2 (Dec. 09, 1996)): 2.955 Log10 CFUs | S. typhimurium, 5,000 ppm CPC (S. typhimurium [2]; trial 2 (Dec. 09, 1996)): 1.977 Log10 CFUs | Reduction, No Spray vs. CPC Treatment (S. typhimurium [2]; trial 3 (Dec. 16, 1996)): 2.395 Log10 CFUs | Reduction, Spray vs. CPC Treatment (S. typhimurium [2]; trial 3 (Dec. 16, 1996)): 2.548 Log10 CFUs | S. typhimurium, 5,000 ppm CPC (S. typhimurium [2]; trial 3 (Dec. 16, 1996)): 2.606 Log10 CFUs | Reduction, No Spray vs. CPC Treatment (S. typhimurium [2]; trial 4 (Jan. 27, 1997)): 3.69 Log10 CFUs | Reduction, Spray vs. CPC Treatment (S. typhimurium [2]; trial 4 (Jan. 27, 1997)): 3.45 Log10 CFUs | S. typhimurium, 5,000 ppm CPC (S. typhimurium [2]; trial 4 (Jan. 27, 1997)): 1.03 Log10 CFUs | Reduction, No Spray vs. CPC Treatment (S. typhimurium [2]; trial 5 (Feb. 03, 1997)): 2.76 Log10 CFUs | Reduction, Spray vs. CPC Treatment (S. typhimurium [2]; trial 5 (Feb. 03, 1997)): 2.79 Log10 CFUs | S. typhimurium, 5,000 ppm CPC (S. typhimurium [2]; trial 5 (Feb. 03, 1997)): 1.426 Log10 CFUs | reduction of Salmonella by CPC in the wash water (S. typhimurium [2]; wash water of the S. typhimurium runs): 1 log | mutagenicity by the Ames assay [3]: nonmutagenic | reduction in attached bacteria (Escherichia coli O157:H7 [4]): 62-64% | Reduction in Log10 (water control vs 5,000 ppm CPC) (C. jejuni; Trial 1): 2.613 Log10 | BACTERIA PRESENT, 5,000 ppm CPC (C. jejuni; Trial 1): 0 | Reduction in Log10 (water control vs 5,000 ppm CPC) (C. jejuni; Trial 2): 2.014 Log10 | BACTERIA PRESENT, 5,000 ppm CPC (C. jejuni; Trial 2): 0.629 | reduction of Salmonella (Salmonella): 3.3 log10 | reduction in the number of bacteria attached to the beef (Escherichia coli O157:H7 [5]): 76% | number of attached bacteria reduced to (Escherichia coli O157:H7 [6]): below 0.1% | Reduction in Log10 (water control vs 5,000 ppm CPC) (E. coli; Trial 1): 1.588 Log10 | BACTERIA PRESENT, 5,000 ppm CPC (E. coli; Trial 1): 0.386 | Reduction in Log10 (water control vs 5,000 ppm CPC) (E. coli; Trial 2): 0.920 Log10 | BACTERIA PRESENT, 5,000 ppm CPC (E. coli; Trial 2): 0.460 | CPC Vs Arcobacter Butzleri, growth in MBC test (Arcobacter butzleri; CPC 0.50 μg/mL): + | CPC Vs Arcobacter Butzleri, growth in MBC test (Arcobacter butzleri; CPC 0.98 μg/mL): + | CPC Vs Arcobacter Butzleri, growth in MBC test (Arcobacter butzleri; CPC 1.96 μg/mL): + | CPC Vs Arcobacter Butzleri, growth in MBC test (Arcobacter butzleri; CPC 3.91 μg/mL): + | CPC Vs Arcobacter Butzleri, growth in MBC test (Arcobacter butzleri; CPC 7.81 μg/mL): + | CPC Vs Arcobacter Butzleri, growth in MBC test (Arcobacter butzleri; CPC 15.63 μg/mL): + | CPC Vs Arcobacter Butzleri, growth in MBC test (Arcobacter butzleri; CPC 31.25 μg/mL): + | CPC Vs Arcobacter Butzleri, growth in MBC test (Arcobacter butzleri; CPC 62.5 μg/mL): − | CPC Vs Arcobacter Butzleri, growth in MBC test (Arcobacter butzleri; CPC 125 μg/mL): − | CPC Vs Arcobacter Butzleri, growth in MBC test (Arcobacter butzleri; CPC […]): + | CPC Vs Campylobacter Jejuni, growth in MBC test (Campylobacter jejuni; CPC 0.50 μg/mL): + | CPC Vs Campylobacter Jejuni, growth in MBC test (Campylobacter jejuni; CPC 0.98 μg/mL): + | CPC Vs Campylobacter Jejuni, growth in MBC test (Campylobacter jejuni; CPC 1.96 μg/mL): + | CPC Vs Campylobacter Jejuni, growth in MBC test (Campylobacter jejuni; CPC 3.91 μg/mL): + | CPC Vs Campylobacter Jejuni, growth in MBC test (Campylobacter jejuni; CPC 7.81 μg/mL): − | CPC Vs Campylobacter Jejuni, growth in MBC test (Campylobacter jejuni; CPC 15.63 μg/mL): − | CPC Vs Campylobacter Jejuni, growth in MBC test (Campylobacter jejuni; CPC 31.25 μg/mL): − | CPC Vs Campylobacter Jejuni, growth in MBC test (Campylobacter jejuni; CPC 62.5 μg/mL): − | CPC Vs Campylobacter Jejuni, growth in MBC test (Campylobacter jejuni; CPC 125 μg/mL): − | CPC Vs Campylobacter Jejuni, growth in MBC test (Campylobacter jejuni; CPC […]): + | reduction in L. monocytogenes (L. monocytogenes [7]): > 4 log10 | decontamination (Salmonella reduction) on chicken skin (S. typhimurium [8]): ~5 log10
